Consider eight compounds from PubChem BioAssay (NCI).

Among the test systems are 786-0 renal; A549 NSCLC; HCC-2998 colon; HCT-116 colon; HCT-15 colon; HOP-62 NSCLC; K-562 leukemia; MALME-3M melanoma; NCI-H23 lung; OVCAR-3 ovarian; OVCAR-5 ovarian; OVCAR-8 ovarian; RXF 393 renal; SF-268 CNS; SF-295 CNS; SK-MEL-28 melanoma; SK-OV-3 ovarian; UACC-62 melanoma; HS 578T breast.
Assay in all cases: NCI tumour cell line growth inhibition, 48 h

Molecules are shown by their SMILES.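 All cell lines were grown in 96-well plates and treated with compound for 48 hours. TGI: total growth inhibition.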

As to `Cc1ccc2c(n1)NC(=O)C(Cc1ccccc1)(N=[N+]=[N-])C2=O` (stereo not given), the TGI in the assay with 786-0 renal, in the assay with A549 NSCLC, in the assay on HCC-2998 colon, in the assay on HCT-116 colon, in the assay on HCT-15 colon and in the assay on HOP-62 NSCLC was more than 100 µM each time. Besides, the TGI in the assay on K-562 leukemia, with MALME-3M melanoma, in the assay on NCI-H23 lung, with OVCAR-3 ovarian, in the assay on OVCAR-5 ovarian and with OVCAR-8 ovarian was more than 100 µM in each case. Further, the TGI in the assay on RXF 393 renal, in the assay with SF-268 CNS, in the assay with SF-295 CNS, in the assay with SK-MEL-28 melanoma, with SK-OV-3 ovarian and in the assay with UACC-62 melanoma was more than 100 µM each time.
Regarding `COc1ccc(C2Oc3c(cccc3-c3c(-c4ccc(O)cc4)oc4cc(O)cc(O)c4c3=O)C(=O)C2O)cc1O` (stereo not given), the TGI in the assay with 786-0 renal, with A549 NSCLC, in the assay on HCC-2998 colon, with HCT-116 colon, in the assay on HCT-15 colon and with HOP-62 NSCLC was more than 100 µM in each case. The TGI in the assay with K-562 leukemia, in the assay on MALME-3M melanoma, in the assay with NCI-H23 lung, in the assay with OVCAR-3 ovarian, with OVCAR-5 ovarian and in the assay on OVCAR-8 ovarian was more than 100 µM in each case. In addition, the TGI with SF-268 CNS, in the assay on SF-295 CNS, in the assay on SK-MEL-28 melanoma, in the assay with SK-OV-3 ovarian and in the assay with UACC-62 melanoma was more than 100 µM in each case.
Take `CC(C)(C)[Si](C)(C)OCCc1ccccc1C1CC2(S(=O)(=O)c3ccccc3)ON1CC2S(=O)(=O)c1ccccc1` (stereo not given): the TGI in the assay with 786-0 renal, with A549 NSCLC, with HCC-2998 colon, in the assay on HCT-116 colon, in the assay on HOP-62 NSCLC and with HS 578T breast was more than 100 µM in each case. The TGI with K-562 leukemia, in the assay on NCI-H23 lung, with OVCAR-3 ovarian, with OVCAR-5 ovarian, in the assay with OVCAR-8 ovarian and in the assay with RXF 393 renal was more than 100 µM throughout. Also, the TGI in the assay on SF-268 CNS, in the assay on SF-295 CNS, in the assay with SK-MEL-28 melanoma, in the assay on SK-OV-3 ovarian and in the assay on UACC-62 melanoma was more than 100 µM throughout.
On to `O=[N+]([O-])c1cccc(-c2cn3c(n2)Cc2ccccc2C3)c1`, for which the TGI in the assay on 786-0 renal, in the assay on A549 NSCLC, with HCT-116 colon, in the assay with HCT-15 colon, in the assay on HOP-62 NSCLC and in the assay on HS 578T breast was more than 100 µM each time. For the same compound, the TGI in the assay on K-562 leukemia was more than 100 µM; in the assay on MALME-3M melanoma it was more than 100 µM; with NCI-H23 lung it was more than 100 µM; in the assay with OVCAR-5 ovarian it was 79.9 µM; in the assay on OVCAR-8 ovarian, more than 100 µM; in the assay with RXF 393 renal, more than 100 µM. For the same compound, the TGI in the assay with SF-268 CNS, with SF-295 CNS, in the assay with SK-MEL-28 melanoma, with SK-OV-3 ovarian and with UACC-62 melanoma was more than 100 µM in each case.
Regarding `COC(=O)CSc1nc2[nH]c(SC)c(C(N)=O)c2c(=O)n1-c1ccccc1`, the TGI in the assay on 786-0 renal, in the assay with A549 NSCLC, in the assay with HCC-2998 colon, in the assay on HCT-15 colon, in the assay with HOP-62 NSCLC and with K-562 leukemia was more than 10 µM throughout. The TGI in the assay on MALME-3M melanoma, in the assay on NCI-H23 lung, in the assay on OVCAR-8 ovarian, with RXF 393 renal, with SF-268 CNS and with SF-295 CNS was more than 10 µM in each case. The TGI with SK-MEL-28 melanoma, in the assay with SK-OV-3 ovarian and in the assay on UACC-62 melanoma was more than 10 µM each time.
Consider `COc1c2cc([N+](=O)[O-])cc1CN(C(=O)C(F)(F)F)CCOCCN(C(=O)C(F)(F)F)C2`, for which the TGI in the assay on 786-0 renal, in the assay with A549 NSCLC, in the assay on HCT-116 colon, in the assay with HCT-15 colon, in the assay with HOP-62 NSCLC and in the assay on HS 578T breast was more than 100 µM in each case. Further, the TGI in the assay on MALME-3M melanoma, in the assay with NCI-H23 lung, in the assay with OVCAR-3 ovarian, in the assay with OVCAR-5 ovarian, with OVCAR-8 ovarian and with SF-268 CNS was more than 100 µM throughout. For the same compound, the TGI in the assay on SF-295 CNS, with SK-MEL-28 melanoma, with SK-OV-3 ovarian and with UACC-62 melanoma was more than 100 µM in each case.
Turning to `CN(C(=S)Cc1ccc(Cl)c(Cl)c1)C1CCCC[C@@H]1N1CCCC1` (stereo not given in full), the TGI with 786-0 renal is 55 µM; with A549 NSCLC, more than 100 µM; in the assay with HCT-116 colon, more than 100 µM; with HCT-15 colon it was more than 100 µM; with HOP-62 NSCLC, more than 100 µM; with K-562 leukemia it was more than 100 µM. Further, the TGI in the assay with NCI-H23 lung is more than 100 µM; in the assay on OVCAR-3 ovarian, more than 100 µM; in the assay on OVCAR-5 ovarian, more than 100 µM; in the assay with SF-295 CNS, 36.2 µM; in the assay on SK-MEL-28 melanoma it was 31.6 µM; in the assay on SK-OV-3 ovarian, more than 100 µM. This compound also registered a TGI with UACC-62 melanoma of 34.1 µM.
For the compound `CC[C@@H]([C@H](O)c1ccccc1Cl)[N+](=O)[O-]`, the TGI with 786-0 renal, in the assay with A549 NSCLC, with HCC-2998 colon, in the assay on HCT-116 colon, with HCT-15 colon and with HOP-62 NSCLC was more than 100 µM in each case. The TGI in the assay with HS 578T breast, in the assay on NCI-H23 lung, in the assay with OVCAR-3 ovarian, in the assay with OVCAR-5 ovarian, in the assay on OVCAR-8 ovarian and in the assay with RXF 393 renal was more than 100 µM each time. Further, the TGI in the assay with SF-268 CNS, with SF-295 CNS, in the assay on SK-MEL-28 melanoma, in the assay with SK-OV-3 ovarian and in the assay with UACC-62 melanoma was more than 100 µM throughout.
